Like-named read-outs stand apart in the source and are kept apart here. Marks after values point to notes of the source that are not given here.

One data set concerns colon cancer organoids. Nature of the data set: Half growth inhibitory concentration (GI50): serial dilutions, 72 hours, MTS assay. It is filed as cell-based, human (patient). As for the experimental part: A patient was diagnosed with colon cancer and mFOLFOX6 chemotherapeutic treatment was prescribed. To obtain primary organoid culture of colon cancer cells a sample of resected lung metastasis was used. Tissue was cut into small fragments and placed immediately into MACS tissue storage solution (Miltenyi Biotec, Germany) and stored for no more than 24 hours at 4° C. Then, the tissue fragments were transferred to a tube for tissue homogenization gentleMACS C Tube (Miltenyi Biotec, Germany) and enzyme cocktail from Tumor Dissociation Kit human (Miltenyi Biotec, Germany) consisting of 2.2 ml of DMEM/F-12 culture medium (Thermo Fisher Scientific, USA), 100 μl of Enzyme H solution (Miltenyi Biotec, Germany), 50 μl of Enzyme R solution (Miltenyi Biotec, Germany) and 12.5 μl of Enzyme A solution (Miltenyi Biotec, Germany) was added to the same tube. Then the tube was tightly closed with a lid and placed in gentleMACS Octo Dissociator (Miltenyi Biotec, Germany). For tissue dissociation, the “37C_h_TDK_3” program was used. […]
Organoids were diluted in Matrigel Growth Factor Reduced (GFR) Basement Membrane Matrix (Corning, USA) and seeded into 96-well plate (TPP, Switzerland). […] Relative number of cells was measured with MTS assay CellTiter 96 Aqueous One Solution Cell Proliferation Assay kit (Promega, USA) according to the manufacturer's instructions (FIG. 2). […]

Data set [1] is described as follows: Clinical pharmacokinetics parameters of mFOLFOX6 active substances from published data. It is filed as in vivo, Humans. The following applies: 5-fluorouracil bolus, sequence number 2, calculated to a dose of 400 mg/m^2 assuming linear kinetics. As for the experimental part:
Pharmacokinetics parameters for all substances presented in Table 3 were identified based on published data. Substances of administration 1 (Oxaliplatin) and 2 (5-Fluorouracil) present simultaneously in the body, so time point of addition of 2 (5-Fluorouracil) was selected in a timeframe of selected incubation time for 1 (Oxaliplatin). Substances of administration 2 (5-Fluorouracil) and 3 (5-Fluorouracil) also present simultaneously in the body, so time point of addition of 3 (5-Fluorouracil) was selected in a timeframe of selected duration of exposure for 2 (5-Fluorouracil).

For data set [2] the following is noted: cited from earlier work.
The conditions of data set [3]: NCI Database; cited from earlier work.
Data set [4] deals with chemo-resistant metastatic CRC. The following applies: absence of genetic selection; cited from earlier work.
The mark [5] stands for this setting: 5-fluorouracil continuous infusion, sequence number 3.
Setting [6] is: oxaliplatin infusion, mFOLFOX6, sequence number 1.

As to `O=c1[nH]cc(F)c(=O)[nH]1` [5-Fluorouracil, 5-fluorouracil], in the data set on colon cancer organoids (Example 3, FIG. 3b), the “sensitivity of organoids judged from GI50” value is given as “sensitive”. Also, the concentration for 50% growth inhibition (GI50) with colon cancer organoids (Homo sapiens, Example 3, organoids from resected lung metastasis, 72 hours incubation) amounted to 2260 nM. The values for the Area under curve in data set [1] and in data set [2] (setting [5]) were 82.1* μM· and 156.4 µM, respectively. In addition, the peak concentration (Cmax) was 273 µM in data set [1] (human, in vivo, intravenous, 400 mg/m2) and 5.5 µM in data set [2] (setting [5]).
For `Nc1nc2c(c(=O)[nH]1)N(C=O)C(CNc1ccc(C(=O)N[C@@H](CCC(=O)O)C(=O)O)cc1)CN2` (stereo partly shown) [Leucovorin, Leucovorin Calcium (Folinic Acid)], the “direct cytotoxic or cytostatic effect” value in data set [3] is on record as “does not possess direct cytotoxic or cytostatic effect”.
For the compound `O=C1[O][Pt]2([NH][C@@H]3CCCC[C@H]3[NH]2)[O]C1=O` [Oxaliplatin], in data set [2] (setting [6]), the Area under curve is 6.8 µM and the highest concentration (Cmax) was 3.6 µM.
Turning to panitumumab: anti-EGFR therapy drug, in data set [4], the “patients responding to anti-EGFR therapy” value is 10%.

The values above are taken from patent US20240036032A1, “PREDICTIVE IN VITRO ASSAY MIMICKING IN VIVO PHARMACOLOGY” (MIMI-Q GMBH, priority 2020, published 2024).
